A word on the melting point: it is the temperature of the solid-liquid transition. What is called pEC50 is the EC50 on a negative log10 scale, so that one unit is a factor of ten.

pEC50: −log10 of the molar value. Structures can show the parent of a compound that is named as a salt. A value given as a limit tells only on which side of the number the result lay.

Consider 24 compounds from patent US20090197897A1, “Novel Oxadiazole Derivatives and Their Use as Positive Allosteric Modulators of Metabotropic Glutamate Receptors” (Addex Pharma SA, priority 2005, published 2009).

Data set [1] concerns the target T1, rat mGluR5 (Rattus norvegicus, UniProt P31424).
T1 construct: expressed in transfected cells
In words: mGluR5 assay on HEK-expressing rat mGluR5 (fluorescent cell based Ca2+ mobilization assay). Particulars: HEK-293 cells stably expressing rat mGluR5; no co-addition of glutamate; mean of at least three independent experiments in duplicate; read-out: Ca++ Flux (mean EC50). How it is done:
mGluR5 Assay on HEK-Expressing Rat mGluR5
Positive functional expression of HEK-293 cells stably expressing rat mGluR5 receptor was determined by measuring intracellular Ca^2+ changes using a Fluorometric Imaging Plate Reader (FLIPR, Molecular Devices, Sunnyvale, Calif.) in response to glutamate or selective known mGluR5 agonists and antagonists. Rat mGluR5 RT-PCR products in HEK-293 cells were sequenced and found 100% identical to rat mGluR5 Genbank reference sequence (NM_017012). HEK-293 cells expressing rmGluR5 were maintained in media containing DMEM, dialyzed Fetal Bovine Serum (10%), Glutamax™ (2 mM), Penicillin (100 units/ml), Streptomycin (100 μg/ml), Geneticin (100 μg/ml) and Hygromycin-B (40 μg/ml) at 37° C./5% CO2.
After one day of incubation, cells were washed with assay buffer containing: 142 mM NaCl, 6 mM KCl, 1 mM […], 1 mM CaCl2, 20 mM HEPES, 1 g/L glucose, 0.125 mM sulfinpyrazone, pH 7.4. After 60 min of loading with 4 uM Fluo-4 (TefLabs, Austin, Tex.), the cells were washed three times with 50 μl of PBS Buffer and resuspended in 45 μl of assay Buffer. The plates were then transferred to a Fluorometric Imaging Plate Reader (FLIPR, Molecular Devices, Sunnyvale, Calif.) for the assessment of intracellular calcium flux. After monitoring the baseline fluorescence for 10 seconds, increasing concentrations of representative compound (from 0.01 to 60 μM) of the present invention diluted in Assay Buffer (15 μl of 4× dilutions) was added to the cell. The final DMSO concentration in the assay was 0.3%. In each experiment, fluorescence was then monitored as a function of time for 3 minutes and the data analyzed using Microsoft Excel and GraphPad Prism. Each data point was also measured two times.
Under these experimental conditions, this HEK-rat mGluR5 cell line is able to directly detect positive allosteric modulators without the need of co-addition of glutamate or mGluR5 agonist.
The concentration-response curves of representative compounds of the present invention were generated using the Prism GraphPad software (Graph Pad Inc, San Diego, USA). The curves were fitted to a four-parameter logistic equation:
(Y=Bottom+(Top−Bottom)/(1+10̂((Log EC50−X)*Hill Slope)
allowing determination of EC50 values.
The Table 1 below represents the mean EC50 obtained from at least three independent experiments of selected molecules performed in duplicate.
(In general: Calcium flux is commonly read through the fluorescence of an indicator in the cells.)

T1 sequence (P31424 21-1171 isoform P31424-2 limits assumed): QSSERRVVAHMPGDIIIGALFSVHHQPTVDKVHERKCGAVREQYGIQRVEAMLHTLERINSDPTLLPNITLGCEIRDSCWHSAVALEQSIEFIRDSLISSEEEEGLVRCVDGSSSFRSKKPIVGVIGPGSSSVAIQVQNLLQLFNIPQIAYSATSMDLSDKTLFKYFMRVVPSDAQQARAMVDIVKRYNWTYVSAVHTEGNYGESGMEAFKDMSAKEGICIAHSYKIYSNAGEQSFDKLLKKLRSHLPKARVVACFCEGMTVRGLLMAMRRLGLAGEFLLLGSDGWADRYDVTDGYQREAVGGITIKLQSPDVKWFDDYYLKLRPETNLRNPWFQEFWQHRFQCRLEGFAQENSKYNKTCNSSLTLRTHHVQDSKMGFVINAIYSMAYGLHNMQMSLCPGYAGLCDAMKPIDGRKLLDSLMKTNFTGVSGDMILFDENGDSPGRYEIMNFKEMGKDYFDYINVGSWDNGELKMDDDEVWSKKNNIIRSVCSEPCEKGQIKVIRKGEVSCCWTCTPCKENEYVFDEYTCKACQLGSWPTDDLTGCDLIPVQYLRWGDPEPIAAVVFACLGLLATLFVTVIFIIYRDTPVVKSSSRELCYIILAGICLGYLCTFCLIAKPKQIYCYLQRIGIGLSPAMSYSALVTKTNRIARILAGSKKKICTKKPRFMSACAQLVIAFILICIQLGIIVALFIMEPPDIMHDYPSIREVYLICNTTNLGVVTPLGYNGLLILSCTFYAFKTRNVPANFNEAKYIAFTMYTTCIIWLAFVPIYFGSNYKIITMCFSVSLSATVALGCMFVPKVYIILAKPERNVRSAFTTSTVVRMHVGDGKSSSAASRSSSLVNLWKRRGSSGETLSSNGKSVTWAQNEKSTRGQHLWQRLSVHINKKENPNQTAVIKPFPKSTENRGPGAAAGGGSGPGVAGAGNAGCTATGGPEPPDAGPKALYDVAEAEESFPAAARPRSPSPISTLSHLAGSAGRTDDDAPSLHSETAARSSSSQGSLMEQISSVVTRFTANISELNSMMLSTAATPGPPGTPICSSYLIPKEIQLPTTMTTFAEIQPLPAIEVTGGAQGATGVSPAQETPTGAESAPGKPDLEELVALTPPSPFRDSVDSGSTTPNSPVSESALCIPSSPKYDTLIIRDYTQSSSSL

The compound `O=C(c1ccccc1)c1cccc(C(=O)N2CCC[C@H](c3nc(-c4ccc(F)cc4)no3)C2)c1` [Example 11, (3-Benzoyl-phenyl)-{(S)-3-[3-(4-fluoro-phenyl)-[1,2,4]oxadiazol-5-yl]-piperidin-1-yl}-methanone] showed a melting point of 158 to 163 °C. The pEC50 in data set [1] was 5.00 to 6.00.
For `O=C(C1CCOCC1)N1CCC[C@H](c2nc(-c3ccc(F)cc3)no2)C1` [Example 9, {(S)-3-[3-(4-Fluoro-phenyl)-[1,2,4]oxadiazol-5-yl]-piperidin-1-yl}-(tetrahydro-pyran-4-yl)-methanone] the same measures were 98 to 100 °C and 5.00 to 6.00.
On the same counts, the results for `O=C(C1CCCCC1)N1CCC[C@H](c2nc(-c3ccc(F)cc3)no2)C1` [Example 10, Cyclohexyl-{(S)-3-[3-(4-fluoro-phenyl)-[1,2,4]oxadiazol-5-yl]-piperidin-1-yl}-methanone] are 80 to 85 °C and 5.00 to 6.00.
In the case of `O=C(C1CCSCC1)N1CCC[C@H](c2nc(-c3ccc(F)cc3)no2)C1` [Example 7, {(S)-3-[3-(4-Fluoro-phenyl)-[1,2,4]oxadiazol-5-yl]-piperidin-1-yl}-(tetrahydro-thiopyran-4-yl)-methanone], the melting point is 139 to 141 °C. Further, the pEC50 in data set [1] was 5.00 to 6.00.
`Cc1cc(C(=O)N2CCC[C@H](c3nc(-c4ccc(F)cc4)no3)C2)c(C)n1C` [Example 17, {(S)-3-[3-(4-Fluoro-phenyl)-[1,2,4]oxadiazol-5-yl]-piperidin-1-yl}-(1,2,5-trimethyl-1H-pyrrol-3-yl)-methanone] showed a melting point of 122 to 126 °C. Also, the negative logarithm of the EC50 (pEC50) in data set [1] was 5.00 to 6.00.
On the same counts, the results for `O=C(c1ccc(F)cc1)N1CCC[C@H](c2nc(-c3cscn3)no2)C1` [Example 50, (4-Fluoro-phenyl)-[(S)-3-(3-thiazol-4-yl-[1,2,4]oxadiazol-5-yl)-piperidin-1-yl]-methanone] are 118 to 120 °C and 5.00 to 6.00.
On the same counts, the results for `O=C(c1cccc2c1OCCO2)N1CCC[C@H](c2nc(-c3ccc(F)cc3)no2)C1` [Example 25, (S)-(2,3-Dihydro-benzo[1,4]dioxin-5-yl)-{3-[3-(4-fluoro-phenyl)-[1,2,4]oxadiazol-5-yl]-piperidin-1-yl}-methanone] are 57 to 60 °C and 5.00 to 6.00.
For `O=C(c1ccc(F)c(F)c1)N1CCC[C@H](c2nc(-c3cscn3)no2)C1` [Example 51, (3,4-Difluoro-phenyl)-[(S)-3-(3-thiazol-4-yl-[1,2,4]oxadiazol-5-yl)-piperidin-1-yl]-methanone], the melting point was in the range of 107 to 109 °C. For the same compound, the pEC50 in data set [1] was 5.00 to 6.00.
Take `Cc1cnccc1C(=O)N1CCC[C@H](c2nc(-c3ccc(F)cc3)no2)C1` [Example 27, (S)-{3-[3-(4-Fluoro-phenyl)-[1,2,4]oxadiazol-5-yl]-piperidin-1-yl}-(3-methyl-pyridin-4-yl)-methanone]: the melting point lay in the range of 59 to 63 °C. Further, the negative logarithm of the EC50 (pEC50) in data set [1] was 5.00 to 6.00.
`O=C(c1ccc(F)c(F)c1)N1CCC[C@H](c2nc(-c3ccccn3)no2)C1` [Example 54, (3,4-Difluoro-phenyl)-[(S)-3-(3-pyridin-2-yl-[1,2,4]oxadiazol-5-yl)-piperidin-1-yl]-methanone] displayed a melting point of 135 to 137 °C. In data set [1], the negative logarithm of the EC50 (pEC50) was greater than 6.00.
For `O=C(c1ccnc(F)c1)N1CCC[C@H](c2nc(-c3ccc(F)cc3)no2)C1` [Example 77, {(S)-3-[3-(4-Fluoro-phenyl)-[1,2,4]oxadiazol-5-yl]-piperidin-1-yl}-(2-fluoro-pyridin-4-yl)-methanone] the same measures were 93 to 95 °C and greater than 6.00.
As to `O=C(c1ccccn1)N1CCC[C@H](c2nc(-c3ccc(F)cc3)no2)C1` [Example 15, {(S)-3-[3-(4-Fluoro-phenyl)-[1,2,4]oxadiazol-5-yl]-piperidin-1-yl}-pyridin-2-yl-methanone hydrochloride], the pEC50 in data set [1] is 5.00 to 6.00.
On to `CNc1ccccc1C(=O)N1CCC[C@H](c2nc(-c3ccc(F)cc3)no2)C1` [Example 49, {(S)-3-[3-(4-Fluoro-phenyl)-[1,2,4]oxadiazol-5-yl]-piperidin-1-yl}-(2-methylamino-phenyl)-methanone], for which the negative logarithm of the EC50 (pEC50) in data set [1] is 5.00 to 6.00.
On the same count and under the same terms, the value for `Cc1c(C(=O)N2CCC[C@H](c3nc(-c4ccc(F)cc4)no3)C2)cnn1C` [Example 21, (1,5-Dimethyl-1H-pyrazol-4-yl)-{(S)-3-[3-(4-fluoro-phenyl)-[1,2,4]oxadiazol-5-yl]-piperidin-1-yl}-methanone] was 5.00 to 6.00.
Consider `Cc1ncc(-c2noc([C@H]3CCCN(C(=O)c4ccc(F)c(F)c4)C3)n2)s1` [Example 75, (3,4-Difluoro-phenyl)-{(S)-3-[3-(2-methyl-thiazol-5-yl)-[1,2,4]oxadiazol-5-yl]-piperidin-1-yl}-methanone], for which the negative-log EC50 (pEC50) in data set [1] is 5.00 to 6.00.
On the same count and under the same terms, the value for `Cc1cc(F)ccc1C(=O)N1CCC[C@H](c2nc(-c3ccccc3F)no2)C1` [Example 71, (4-Fluoro-2-methyl-phenyl)-{(S)-3-[3-(2-fluoro-phenyl)-[1,2,4]oxadiazol-5-yl]-piperidin-1-yl}-methanone] was 5.00 to 6.00; that for `O=C(c1ccc(F)cc1)N1CCC[C@H](c2nc(-c3ccco3)no2)C1` [Example 35, (4-Fluoro-phenyl)-[(S)-3-(3-furan-2-yl-[1,2,4]oxadiazol-5-yl)-piperidin-1-yl]-methanone] was 5.00 to 6.00.
The same measure, in the same setting: as for `Cc1occc1C(=O)N1CCC[C@H](c2nc(-c3ccc(F)cc3)no2)C1` [Example 24, {(S)-3-[3-(4-Fluoro-phenyl)-[1,2,4]oxadiazol-5-yl]-piperidin-1-yl}-(2-methyl-furan-3-yl)-methanone], the figure is 5.00 to 6.00.
Still for that read-out and setting: as for `O=C(C1CCc2cc(F)ccc21)N1CCC[C@H](c2nc(-c3ccc(F)cc3)no2)C1` (stereo partly drawn) [Example 8, (5-Fluoro-indan-1-yl)-{(S)-3-[3-(4-fluoro-phenyl)-[1,2,4]oxadiazol-5-yl]-piperidin-1-yl}-methanone], the figure is less than 5.00.
In the case of `O=C(c1cccc(COc2ccccc2)c1)N1CCC[C@H](c2nc(-c3ccc(F)cc3)no2)C1` [Example 6, {(S)-3-[3-(4-Fluoro-phenyl)-[1,2,4]oxadiazol-5-yl]-piperidin-1-yl}-(3-phenoxymethyl-phenyl)-methanone], the pEC50 in data set [1] was less than 5.00.
As for `O=C(c1ccccc1NCc1ccccc1)N1CCC[C@H](c2nc(-c3ccc(F)cc3)no2)C1` [Example 55, (2-Benzylamino-phenyl)-{(S)-3-[3-(4-fluoro-phenyl)-[1,2,4]oxadiazol-5-yl]-piperidin-1-yl}-methanone], in data set [1], the pEC50 is less than 5.00.
As for `O=C(c1ccoc1)N1CCC[C@H](c2nc(-c3ccc(F)cc3)no2)C1` [Example 22, {(S)-3-[3-(4-Fluoro-phenyl)-[1,2,4]oxadiazol-5-yl]-piperidin-1-yl}-furan-3-yl-methanone], in data set [1], the pEC50 was 5.00 to 6.00.
Same read-out and setting: as for `O=C(c1ccc(F)cc1F)N1CCC[C@H](c2nc(-c3ccccc3)no2)C1` [Example 59, (2,4-Difluoro-phenyl)-[(S)-3-(3-phenyl-[1,2,4]oxadiazol-5-yl)-piperidin-1-yl]-methanone], the figure is greater than 6.00; as for `O=C(c1ccc(F)nc1)N1CCC[C@H](c2nc(-c3ccc(F)cc3F)no2)C1` [Example 66, {(S)-3-[3-(2,4-Difluoro-phenyl)-[1,2,4]oxadiazol-5-yl]-piperidin-1-yl}-(6-fluoro-pyridin-3-yl)-methanone], greater than 6.00.
